Data set [1] has as its target EML4-ALK C1156Y transformed Ba/F3 cells (Homo sapiens, UniProt Q9UM73, C1156Y, cells depend on it). The data set is described as follows: Ba/F3 dose escalation MTS viability assay. It is filed as cell-based. The following applies: 72 hours. On the technique in general: Formazan colour is commonly taken as a measure of viable cells.
Description: (§1) The MTS assay is a colorimetric method for determining the number of viable cells that is based on the bioreduction of MTS by cells to a formazan product that is soluble in cell culture medium and can be detected spectrophotometrically. […] All experimental points were set up in six wells and all experiments were repeated at least three times. […] The curves were fitted using a non-linear regression model with a sigmoidal dose response.
(§2) Untransduced Ba/F3 control was used as a cytotoxicity control.
Data set [2] deals with EML4-ALK L1152R transformed Ba/F3 cells (Homo sapiens, UniProt Q9UM73, L1152R, cells depend on it). Briefly: Ba/F3 dose escalation MTS viability assay. The format is cell-based. The following applies: 72 hours.
Description: as §1, §2
The target in data set [3] is EML4-ALK G1202R transformed Ba/F3 cells (Homo sapiens, UniProt Q9UM73, G1202R, cells depend on it). Briefly: Ba/F3 dose escalation MTS viability assay. It is filed as cell-based. The following applies: 72 hours.
Description: as §1, §2
Data set [4] deals with EML4-ALK G1269A transformed Ba/F3 cells (Homo sapiens, UniProt Q9UM73, G1269A, cells depend on it). Briefly: Ba/F3 dose escalation MTS viability assay. The format is cell-based. The following applies: 72 hours.
Description: as §1, §2
Data set [5] has as its target EML4-ALK S1206Y transformed Ba/F3 cells (Homo sapiens, UniProt Q9UM73, S1206Y, cells depend on it). The data set is described as follows: Ba/F3 dose escalation MTS viability assay. It is filed as cell-based. The following applies: 72 hours.
Description: as §1, §2
The test system of data set [6] is EML4-ALK wt transformed Ba/F3 cells. The data set is described as follows: Ba/F3 single point inhibition assay (MTS). The following applies: single dose 1 μM, 72 hours. The format is cell-based.
Description: as §1
Data set [7] has as its system EML4-ALK^G1202R transformed Ba/F3 cells. Briefly: Ba/F3 single point inhibition assay (MTS). The following applies: single dose 1 μM, 72 hours. It is filed as cell-based.
Description: as §1
A further data set deals with SRPK1 (Homo sapiens (Human), UniProt Q96SB4). The data set is described as follows: SRPK1 inhibitory activity. It is filed as biochemical.
The next data set deals with SRPK2 (Homo sapiens (Human), UniProt P78362). Briefly: SRPK2 inhibitory activity. The format is biochemical.
The target of data set [8] is EML4-ALK^WT transformed Ba/F3 cells (Homo sapiens, UniProt Q9UM73). Briefly: Ba/F3 dose escalation MTS viability assay. The following applies: read-out: IC50 wt, 72 hours.
Description: as §1, §2
Data set [9] deals with EML4-ALK L1196M transformed Ba/F3 cells (Homo sapiens, UniProt Q9UM73, L1196M, cells depend on it). Briefly: Ba/F3 dose escalation MTS viability assay. The following applies: read-out: IC50 L1196M, 72 hours.
Description: as §1, §2
The test system of a further data set is H3122 cells (NSCLC). The format is cell-based. The following applies: Homo sapiens.
Data set [10] deals with DFCI76 (L1152R) cells (NSCLC). The format is cell-based. The following applies: read-out: IC50 Tumor Cell Line DFCI76 (L1152R).
The next data set deals with panel of 456 kinases. The data set is described as follows: KINOMESCAN kinase selectivity profiling. The format is binding. The following applies: screened at 1 μM.
For data set [11] the following is noted: mouse, in vivo, iv, 2 mg/kg, 8 h.
In data set [12] the target is CD74-ROS transduced Ba/F3 cells (Homo sapiens, UniProt P08922). Briefly: Ba/F3 proliferation assay. The following applies: read-out: IC50 Ba/F3 CD74-ROS; Table 6. It is filed as cell-based.
Description: as §1
The target of data set [13] is del19EGFR transduced Ba/F3 cells (Homo sapiens, UniProt P00533, cells depend on it, form not given). Briefly: Ba/F3 proliferation assay. The format is cell-based. The following applies: read-out: IC50 Ba/F3 del19EGFR; Table 6.
Data set [14] concerns mutant EGFR PC9 cell line. The following applies: in words.
Protocol: Cell viability was evaluated using CellTiter-Glo Luminescent Cell Viability Assay (Promega) following manufacturer's instruction. IC50 values were calculated by nonlinear regression (variable slope) using GraphPad Prism 5 software. Each experiment was repeated for at least twice.

SMILES strings stand for the structures. Where two headings read alike, the source gives them in different places.

For `CCc1cc2c(cc1-c1cnoc1)C(C)(C)c1[nH]c3cc(C#N)ccc3c1C2=O` [Compound 10, 9-ethyl-8-(isoxazol-4-yl)-6,6-dimethyl-11-oxo-6,11-dihydro-5H-benzo[b]carbazole-3-carbonitrile], the IC50 worked out at 116 nM in data set [1]; 345 nM in [2]; 80 nM in data set [3]; 186 nM in data set [4]; 728 nM in data set [5]; 5.09 nM on SRPK1. Moreover, the values for the IC50 (against SRPK2; in data set [8]; in [9]) were 14.5 nM, 59 nM and 634 nM, respectively. The “Percent viability of untreated control, wt” value (“Percent viability … wt” below) in [6] is on record as 2%. Also, in data set [7], the “Percent viability of untreated control, G1202R” value (“Percent viability … G1202R” for short) was determined as 3%.

Consider `CCc1cc2c(cc1N1CCC(N3CCOCC3)CC1)C(C)(C)c1[nH]c3cc(C#N)ccc3c1C2=O` [Alectinib], for which the IC50 in the data set on H3122 cells (NSCLC) (NCI-H3122, read-out: IC50 Tumor Cell Line H3122) worked out at 7 ± 4 nM; in data set [10], 26 ± 27 nM; against SRPK1 it was 11 nM; against SRPK2, 28.2 nM.

As to `Cc1cc(Nc2ncc(Cl)c(Nc3ccccc3S(=O)(=O)C(C)C)n2)c(OC(C)C)cc1C1CCNCC1` [Ceritinib], the IC50 in the data set on H3122 cells (NSCLC) (NCI-H3122, Table 6, read-out: IC50 Tumor Cell Line H3122) was 13 ± 5 nM.

On to `CCc1cc2c(cc1-c1cnn(C(=O)N(C)C)c1)C(C)(C)c1[nH]c3cc(C#N)ccc3c1C2=O` [Compound 36, 4-(3-cyano-9-ethyl-6,6-dimethyl-11-oxo-6,11-dihydro-5H-benzo[b]carbazol-8-yl)-N,N-dimethyl-1H-pyrazole-1-carboxamide], for which the “Percent viability … wt” value in [6] was 0%. In addition, the “Percent viability … G1202R” value in [7] is on record as 0%. In addition, the IC50 on SRPK1 was 4.75 nM; on SRPK2, 23.6 nM.

For the molecule `CCc1cc2c(cc1-c1cnn(C)c1)C(C)(C)c1[nH]c3cc(C#N)ccc3c1C2=O` [Compound 7, 9-ethyl-6,6-dimethyl-8-(1-methyl-1H-pyrazol-4-yl)-11-oxo-6,11-dihydro-5H-benzo[b]carbazole-3-carbonitrile], in data set [6], the “Percent viability … wt” value stood at 1%. Moreover, the “Percent viability … G1202R” value in data set [7] amounted to 1%. Moreover, the values for the IC50 at SRPK1 and against SRPK2 were 3.01 nM and 12.4 nM, respectively.

For the molecule `CCc1cc2c(cc1N1CCC(N(C)C)CC1)C(C)(C)c1[nH]c3cc(C#N)ccc3c1C2=O` [Compound 17, 8-(4-(dimethylamino)piperidin-1-yl)-9-ethyl-6,6-dimethyl-11-oxo-6,11-dihydro-5H-benzo[b]carbazole-3-carbonitrile], the IC50 in data set [1] is 2 nM; in data set [2], 695 nM; in data set [3], 478 nM; in data set [4], 3 nM; in data set [5] it was 2 nM; at SRPK1, more than 1000 nM. In addition, the results for the IC50 in data set [8] and in [9] were 2 nM and 10 nM, respectively. In data set [6], the “Percent viability … wt” value is 2%. For the same molecule, the “Percent viability … G1202R” value in data set [7] is 9%.

On to `CCc1cc2c(cc1-c1cnn[nH]1)C(C)(C)c1[nH]c3cc(C#N)ccc3c1C2=O` [Compound 13, 9-ethyl-6,6-dimethyl-11-oxo-8-(1H-1,2,3-triazol-5-yl)-6,11-dihydro-5H-benzo[b]carbazole-3-carbonitrile], for which the IC50 in data set [1] came to 177 nM; in [2], 345 nM; in [3], 214 nM; in data set [4], 256 nM; in data set [5] it was 1610 nM; against SRPK1, 0.884 nM. The IC50 against SRPK2 is 7.46 nM; in data set [8] it was 115 nM; in data set [9], 629 nM. The “Percent viability … wt” value in data set [6] was determined as 6%. The “Percent viability … G1202R” value in data set [7] is 7%.

Turning to `CCc1cc2c(cc1-c1cnn(CCCN(C)C)c1)C(C)(C)c1[nH]c3cc(C#N)ccc3c1C2=O` [Compound 32, 8-(1-(3-(dimethylamino)propyl)-1H-pyrazol-4-yl)-9-ethyl-6,6-dimethyl-11-oxo-6,11-dihydro-5H-benzo[b]carbazole-3-carbonitrile], in [6], the “Percent viability … wt” value is reported as 0%. Also, the “Percent viability … G1202R” value in data set [7] is on record as 0%. Moreover, the KINOMESCAN interactions mapped on panel of 456 kinases was found to be 39. In addition, in data set [11], the Conc. is 80 nM.

On to `CCc1cc2c(cc1-c1cnn(CCN(C)C)c1)C(C)(C)c1[nH]c3cc(C#N)ccc3c1C2=O` [Compound 31, 8-(1-(2-(dimethylamino)ethyl)-1H-pyrazol-4-yl)-9-ethyl-6,6-dimethyl-11-oxo-6,11-dihydro-5H-benzo[b]carbazole-3-carbonitrile], for which the IC50 was found to be 24 nM in data set [1]; 548 nM in [2]; 8 nM in [3]; 11 nM in data set [4]; 6 nM in data set [5]; 1.91 nM against SRPK1. Further, the figures for the IC50 (against SRPK2; in [8]; in data set [9]) were 6.6 nM, 2 nM and 80 nM, respectively. Further, the “Percent viability … wt” value in data set [6] was 1%. Besides, the “Percent viability … G1202R” value in data set [7] is 1%.

With `CCc1cc2c(cc1N1CCN(C)CC1)C(C)(C)c1[nH]c3cc(C#N)ccc3c1C2=O` [Compound 19, 9-ethyl-6,6-dimethyl-8-(4-methylpiperazin-1-yl)-11-oxo-6,11-dihydro-5H-benzo[b]carbazole-3-carbonitrile], the “Percent viability … wt” value in [6] is given as 0.1%. Further, the “Percent viability … G1202R” value in data set [7] turned out to be 0.1%. Besides, the IC50 against SRPK1 was 2.66 nM; on SRPK2, 8.57 nM.

As to `CCc1cc2c(cc1-c1cnn(CC(=O)N(C)C)c1)C(C)(C)c1[nH]c3cc(C#N)ccc3c1C2=O` [Compound 6, 2-(4-(3-cyano-9-ethyl-6,6-dimethyl-11-oxo-6,11-dihydro-5H-benzo[b]carbazol-8-yl)-1H-pyrazol-1-yl)-N,N-dimethylacetamide], the IC50 in data set [12] came to 678 ± 109 nM; in data set [13], 281 ± 1 nM. Moreover, the “inhibition of mutant EGFR PC9 cell line” value in [14] was “not inhibited”.

Source of the values: patent US11066363B2, “Substituted 6,11-dihydro-5H-benzo[B]carbazoles as inhibitors of ALK and SRPK” (Dana-Farber Cancer Institute, Inc., priority 2015, dated 2021).
